According to ChEMBL document CHEMBL3351327, “Synthesis of some novel hydrazone and 2-pyrazoline derivatives: monoamine oxidase inhibitory activities and docking studies” (Bioorg Med Chem Lett, 2014):

How the values were obtained:
[1] = target: T1, Amine oxidase [flavin-containing] A (Homo sapiens, UniProt P21397); assay: biochemical; format: cell-based
T1 sequence (P21397 whole entry): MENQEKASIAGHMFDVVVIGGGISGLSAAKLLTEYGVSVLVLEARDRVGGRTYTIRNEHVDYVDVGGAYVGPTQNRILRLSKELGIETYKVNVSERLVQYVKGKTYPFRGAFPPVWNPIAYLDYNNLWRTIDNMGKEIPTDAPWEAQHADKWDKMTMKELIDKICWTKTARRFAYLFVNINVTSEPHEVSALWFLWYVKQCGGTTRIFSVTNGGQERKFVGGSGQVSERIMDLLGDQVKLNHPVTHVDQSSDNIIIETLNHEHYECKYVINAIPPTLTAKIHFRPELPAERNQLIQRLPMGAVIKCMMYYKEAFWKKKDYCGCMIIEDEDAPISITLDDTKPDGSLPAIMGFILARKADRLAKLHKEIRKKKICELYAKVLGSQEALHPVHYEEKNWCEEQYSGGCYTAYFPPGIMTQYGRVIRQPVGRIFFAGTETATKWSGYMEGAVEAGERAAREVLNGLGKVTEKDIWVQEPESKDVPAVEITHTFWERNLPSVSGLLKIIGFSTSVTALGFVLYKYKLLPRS
Description: Inhibition of human MAOA expressed in baculovirus-infected BTI insect cells assessed as H2O2 production by resorufin dye based fluorimetric method

[2] = target: T2, Amine oxidase [flavin-containing] B (Homo sapiens, UniProt P27338); assay: biochemical; format: cell-based
T2 sequence (P27338 whole entry): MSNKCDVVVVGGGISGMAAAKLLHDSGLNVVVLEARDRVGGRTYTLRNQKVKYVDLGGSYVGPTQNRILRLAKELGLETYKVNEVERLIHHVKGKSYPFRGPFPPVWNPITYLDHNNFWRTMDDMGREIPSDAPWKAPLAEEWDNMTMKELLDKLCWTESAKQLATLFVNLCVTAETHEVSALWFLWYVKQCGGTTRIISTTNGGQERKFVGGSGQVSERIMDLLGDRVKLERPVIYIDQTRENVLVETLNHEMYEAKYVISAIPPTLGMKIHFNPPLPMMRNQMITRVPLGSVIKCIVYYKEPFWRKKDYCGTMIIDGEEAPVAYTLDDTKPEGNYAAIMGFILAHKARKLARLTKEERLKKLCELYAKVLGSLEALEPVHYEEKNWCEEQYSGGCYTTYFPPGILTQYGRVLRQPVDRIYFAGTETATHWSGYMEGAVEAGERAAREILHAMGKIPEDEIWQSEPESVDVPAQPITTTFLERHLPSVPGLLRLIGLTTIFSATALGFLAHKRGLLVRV
Description: Inhibition of human MAOB expressed in baculovirus-infected BTI insect cells assessed as H2O2 production by resorufin dye based fluorimetric method

Ki [1] | Ki [2] | Compound
0.18 µM | 2 µM | Cc1ccc([C@H]2CC(c3cc(Br)ccc3O)=NN2C(=O)c2ccncc2)cc1
0.1 µM | 5.55 µM | COc1ccc(/C=C/C(=O)c2ccc(Br)cc2)cc1
0.012 µM | 1.05 µM | COc1ccc(/C=C/C(=N/NC(=O)c2snnc2C)c2ccc(Cl)cc2)cc1
0.6 µM | – | Cc1ccc(/C=C/C(=O)c2ccc(O)cc2)cc1
0.24 µM | 13.9 µM | COc1ccc(/C=C/C(=O)c2ccc(Cl)cc2)cc1
0.6 µM | 5.23 µM | Cc1ccc([C@H]2CC(c3cc(Cl)ccc3O)=NN2C(=O)c2ccncc2)cc1
0.041 µM | 0.9 µM | COc1ccc(C(/C=C/c2ccc(C)cc2)=N\NC(=O)c2snnc2C)cc1
0.13 µM | 1640 µM | Cc1ccc([C@H]2CC(c3cc(Br)ccc3O)=NN2C(=O)c2cccs2)cc1
79.2 µM | – | COc1ccc(C(=O)N2N=C(c3cc(Br)ccc3O)C[C@@H]2c2ccc(C)cc2)cc1
0.012 µM | 0.75 µM | Cc1ccc([C@H]2CC(c3cc(Cl)ccc3O)=NN2C(=O)c2ccccc2)cc1
0.034 µM | 0.52 µM | Cc1ccc(/C=C/C(=N\NC(=O)c2cccs2)c2ccc(Cl)cc2)cc1
0.04 µM | – | Cc1ccc([C@H]2CC(c3cc(Br)ccc3O)=NN2C(=O)c2ccccc2)cc1
0.01 µM | 1.48 µM | Cc1ccc(/C=C/C(=N/NC(=O)c2snnc2C)c2ccc(O)cc2)cc1
0.24 µM | 72 µM | Cc1ccc([C@H]2CC(c3cc(Cl)ccc3O)=NN2C(=O)c2snnc2C)cc1
0.11 µM | 0.99 µM | Cc1ccc([C@H]2CC(c3cc(Cl)ccc3O)=NN2C(=O)c2ccco2)cc1
0.14 µM | 7.22 µM | Cc1ccc(/C=C/C(=O)c2cc(Cl)ccc2O)cc1
4.67 µM | – | COc1ccc(C(=O)N2N=C(c3cc(Cl)ccc3O)C[C@@H]2c2ccc(C)cc2)cc1
0.045 µM | 0.98 µM | COc1ccc(/C=C/C(=N\NC(=O)c2ccc(OC)cc2)c2ccc(Br)cc2)cc1
0.091 µM | 0.7 µM | COc1ccc(/C=C/C(=N\NC(=O)c2ccco2)c2ccc(Br)cc2)cc1
0.01 µM | 0.99 µM | Cc1cccc(/C=C/C(=N/NC(=O)c2snnc2C)c2ccc(Cl)cc2)c1
0.13 µM | 4.22 µM | Cc1ccc(/C=C/C(=O)c2cc(Br)ccc2O)cc1
0.16 µM | 7 µM | Cc1cccc(/C=C/C(=O)c2ccc(Cl)cc2)c1
0.034 µM | – | COc1ccc(/C=C/C(=N\NC(=O)c2ccc(OC)cc2)c2ccc(Cl)cc2)cc1
0.45 µM | 14 µM | Cc1ccc([C@H]2CC(c3cc(Br)ccc3O)=NN2C(=O)c2ccco2)cc1
0.56 µM | 14.9 µM | COc1ccc(C(=O)/C=C/c2ccc(C)cc2)cc1
0.012 µM | 0.76 µM | Cc1ccc(/C=C/C(=N/NC(=O)c2snnc2C)c2ccc(Cl)cc2)cc1
0.24 µM | 7.7 µM | Cc1ccc(/C=C/C(=O)c2ccc(Cl)cc2)cc1
